Results as given in article PMC10116596 (Biochemistry, 2023).

Target: LcrH1–168 (Yersinia pestis, UniProt P21207)
Format: binding, Y. pestis
Conditions: pH 7.8

Chain of LcrH1–168 (P21207 whole entry, looked up): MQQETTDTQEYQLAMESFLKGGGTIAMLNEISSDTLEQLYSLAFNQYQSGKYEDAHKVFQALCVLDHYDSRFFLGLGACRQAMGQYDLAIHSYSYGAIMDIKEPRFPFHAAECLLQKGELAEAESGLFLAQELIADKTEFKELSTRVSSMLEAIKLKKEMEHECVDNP

Substance | ΔH | –TΔS [kcal/mol]
Ac-QGVQLPAPLA-NH2 [YopB48–57] | –44 ± 15 kJ/mol | 5.5 ± 3.59
Ac-QVPELIKPSQ-NH2 [YopD56–65] | –51 ± 2 kJ/mol | 6.69 ± 0.48
